Laboratory results as given in PubChem BioAssay AID1259407 (Chemical Carcinogenesis Research Information System (CCRIS), 2018).
Calls of active or inactive are those of the source. The rule behind the calls is not given here.

System: CCRIS mutagenicity, Ames/micronucleus/aberration tests
Experiment: CCRIS mutagenicity studies
[1] = Test System: AMES SALMONELLA TYPHIMURIUM, Strain/Indicator: TA98, Metabolic Activation: NONE, Method: PREINCUBATION
[2] = Test System: AMES SALMONELLA TYPHIMURIUM, Strain/Indicator: TA100, Metabolic Activation: NONE, Method: PREINCUBATION
[3] = Test System: AMES SALMONELLA TYPHIMURIUM, Strain/Indicator: TA1535, Metabolic Activation: NONE, Method: PREINCUBATION
[4] = Test System: AMES SALMONELLA TYPHIMURIUM, Strain/Indicator: TA1537, Metabolic Activation: NONE, Method: PREINCUBATION
[5] = Test System: AMES SALMONELLA TYPHIMURIUM, Strain/Indicator: TA98, Metabolic Activation: HAMSTER, LIVER, S-9, AROCLOR 1254 (10%), Method: PREINCUBATION
[6] = Test System: AMES SALMONELLA TYPHIMURIUM, Strain/Indicator: TA98, Metabolic Activation: RAT, LIVER, S-9, AROCLOR 1254 (10%), Method: PREINCUBATION
[7] = Test System: AMES SALMONELLA TYPHIMURIUM, Strain/Indicator: TA100, Metabolic Activation: HAMSTER, LIVER, S-9, AROCLOR 1254 (10%), Method: PREINCUBATION
[8] = Test System: AMES SALMONELLA TYPHIMURIUM, Strain/Indicator: TA100, Metabolic Activation: RAT, LIVER, S-9, AROCLOR 1254 (10%), Method: PREINCUBATION
[9] = Test System: AMES SALMONELLA TYPHIMURIUM, Strain/Indicator: TA1535, Metabolic Activation: HAMSTER, LIVER, S-9, AROCLOR 1254 (10%), Method: PREINCUBATION
[10] = Test System: AMES SALMONELLA TYPHIMURIUM, Strain/Indicator: TA1535, Metabolic Activation: RAT, LIVER, S-9, AROCLOR 1254 (10%), Method: PREINCUBATION
[11] = Test System: AMES SALMONELLA TYPHIMURIUM, Strain/Indicator: TA1537, Metabolic Activation: HAMSTER, LIVER, S-9, AROCLOR 1254 (10%), Method: PREINCUBATION
[12] = Test System: AMES SALMONELLA TYPHIMURIUM, Strain/Indicator: TA1537, Metabolic Activation: RAT, LIVER, S-9, AROCLOR 1254 (10%), Method: PREINCUBATION
[13] = Test System: AMES SALMONELLA TYPHIMURIUM, Strain/Indicator: TA1538, Metabolic Activation: RAT, LIVER, S-9, AROCLOR 1254, Method: STANDARD PLATE

Row | SMILES | mutagenic call [1] | mutagenic call [2] | mutagenic call [3] | mutagenic call [4] | mutagenic call [5] | mutagenic call [6] | mutagenic call [7] | mutagenic call [8] | mutagenic call [9] | mutagenic call [10] | mutagenic call [11] | mutagenic call [12] | mutagenic call [13] | further results
1 | O.[Cu].[Cu] | inactive; negative | inactive; negative | inactive; negative | inactive; negative |  |  |  |  |  |  |  |  |  | mutagenic call (Test System: AMES SALMONELLA TYPHIMURIUM, Strain/Indicator: TA98, Metabolic Activation: RAT, LIVER, S-9, KC 500, Method: PREINCUBATION): inactive; negative; mutagenic call (Test System: AMES SALMONELLA TYPHIMURIUM, Strain/Indicator: TA100, Metabolic Activation: RAT, LIVER, S-9, KC 500, Method: PREINCUBATION): inactive; negative; mutagenic call (Test System: AMES SALMONELLA TYPHIMURIUM, Strain/Indicator: TA1535, Metabolic Activation: RAT, LIVER, S-9, KC 500, Method: PREINCUBATION): inactive; negative; mutagenic call (Test System: AMES SALMONELLA TYPHIMURIUM, Strain/Indicator: TA1537, Metabolic Activation: RAT, LIVER, S-9, KC 500, Method: PREINCUBATION): inactive; negative; mutagenic call (Test System: AMES SALMONELLA TYPHIMURIUM, Strain/Indicator: TA1538, Metabolic Activation: NONE, Method: PREINCUBATION): inactive; negative; mutagenic call (Test System: AMES SALMONELLA TYPHIMURIUM, Strain/Indicator: TA1538, Metabolic Activation: RAT, LIVER, S-9, KC 500, Method: PREINCUBATION): inactive; negative; mutagenic call (Test System: E. COLI, Strain/Indicator: WP2 UVRA, Metabolic Activation: NONE, Method: PREINCUBATION): inactive; negative; mutagenic call (Test System: E. COLI, Strain/Indicator: WP2 UVRA, Metabolic Activation: RAT, LIVER, S-9, KC 500, Method: PREINCUBATION): inactive; negative
2 | Cc1c(Br)c(Br)c(Br)c(Br)c1Br | inactive; negative | inactive; negative | inactive; negative | inactive; negative | inactive; negative | inactive; negative | inactive; negative | inactive; negative | inactive; negative | inactive; negative | inactive; negative | inactive; negative |  | 
3 | COc1cc(-c2ccc(N/N=C3/C(=O)c4c(N)cc(S(=O)(=O)O)cc4C=C3S(=O)(=O)O)c(OC)c2)ccc1N/N=C1/C(=O)c2c(N)cc(S(=O)(=O)O)cc2C=C1S(=O)(=O)O | inactive; negative | inactive; negative | inactive; negative | inactive; negative | inactive; negative | inactive; negative | inactive; negative | inactive; negative | inactive; negative | inactive; negative | inactive; negative | inactive; negative | active; positive | mutagenic call (End Point: IN VITRO CHROMOSOMAL ABERRATIONS, Test System: CHINESE HAMSTER OVARY CELLS, Metabolic Activation: NONE): inactive; negative; mutagenic call (End Point: IN VITRO CHROMOSOMAL ABERRATIONS, Test System: CHINESE HAMSTER OVARY CELLS, Metabolic Activation: RAT, LIVER, S-9, AROCLOR 1254): inactive; negative; mutagenic call (Test System: AMES SALMONELLA TYPHIMURIUM, Strain/Indicator: SV50, Metabolic Activation: HAMSTER, LIVER, S-9, Method: PREINCUBATION (PRIVAL METHOD)): active; positive; mutagenic call (Test System: AMES SALMONELLA TYPHIMURIUM, Strain/Indicator: SV50, Metabolic Activation: RAT, LIVER, S-9, AROCLOR 1254, Method: PREINCUBATION (PRIVAL METHOD)): active; positive; mutagenic call (Test System: AMES SALMONELLA TYPHIMURIUM, Strain/Indicator: TA98, Metabolic Activation: HAMSTER, LIVER, S-9, Method: PREINCUBATION (PRIVAL METHOD)): active; positive; mutagenic call (Test System: AMES SALMONELLA TYPHIMURIUM, Strain/Indicator: TA98, Metabolic Activation: RAT, LIVER, S-9, AROCLOR 1254, Method: PREINCUBATION (PRIVAL METHOD)): active; positive; mutagenic call (Test System: AMES SALMONELLA TYPHIMURIUM, Strain/Indicator: TA1538, Metabolic Activation: FLAVIN MONONUCLEOTIDE REDUCTION, HAMSTER, LIVER, S-9, Method: PREINCUBATION): active; positive; mutagenic call (Test System: AMES SALMONELLA TYPHIMURIUM, Strain/Indicator: TA1538, Metabolic Activation: RAT, CECAL BACTERIAL REDUCTION, S-9, AROCLOR 1254, Method: PREINCUBATION): active; positive; mutagenic call (Test System: AMES SALMONELLA TYPHIMURIUM, Strain/Indicator: TA1538, Metabolic Activation: RAT, LIVER, S-9, AROCLOR 1254, Method: PREINCUBATION): active; positive
4 | Cc1cc(N)c(C)cc1N |  |  |  |  |  |  |  |  |  |  |  |  | inactive; negative | mutagenic call (Test System: AMES SALMONELLA TYPHIMURIUM, Strain/Indicator: TA98, Metabolic Activation: NONE, Method: STANDARD PLATE): inactive; negative; mutagenic call (Test System: AMES SALMONELLA TYPHIMURIUM, Strain/Indicator: TA98, Metabolic Activation: RAT, LIVER, S-9, AROCLOR 1254, Method: STANDARD PLATE): active; positive; mutagenic call (Test System: AMES SALMONELLA TYPHIMURIUM, Strain/Indicator: TA100, Metabolic Activation: NONE, Method: STANDARD PLATE): inactive; negative; mutagenic call (Test System: AMES SALMONELLA TYPHIMURIUM, Strain/Indicator: TA100, Metabolic Activation: RAT, LIVER, S-9, AROCLOR 1254, Method: STANDARD PLATE): inactive; negative; mutagenic call (Test System: AMES SALMONELLA TYPHIMURIUM, Strain/Indicator: TA1535, Metabolic Activation: NONE, Method: STANDARD PLATE): inactive; negative; mutagenic call (Test System: AMES SALMONELLA TYPHIMURIUM, Strain/Indicator: TA1535, Metabolic Activation: RAT, LIVER, S-9, AROCLOR 1254, Method: STANDARD PLATE): inactive; negative; mutagenic call (Test System: AMES SALMONELLA TYPHIMURIUM, Strain/Indicator: TA1537, Metabolic Activation: NONE, Method: STANDARD PLATE): inactive; negative; mutagenic call (Test System: AMES SALMONELLA TYPHIMURIUM, Strain/Indicator: TA1537, Metabolic Activation: RAT, LIVER, S-9, AROCLOR 1254, Method: STANDARD PLATE): inactive; negative; mutagenic call (Test System: AMES SALMONELLA TYPHIMURIUM, Strain/Indicator: TA1538, Metabolic Activation: NONE, Method: STANDARD PLATE): inactive; negative
5 | CC(=O)Nc1cc(N(CCOC(C)=O)CCOC(C)=O)ccc1N=Nc1ccc([N+](=O)[O-])cc1Cl |  |  |  |  |  |  |  |  |  |  |  |  |  | mutagenic call (End Point: IN VITRO CHROMOSOMAL ABERRATIONS, Test System: CHL CELLS, Metabolic Activation: NONE): inactive; negative; mutagenic call (End Point: IN VITRO CHROMOSOMAL ABERRATIONS, Test System: CHL CELLS, Metabolic Activation: RAT, LIVER, S-9, SODIUM PHENOBARBITAL AND 5,6-BENZOFLAVONE): inactive; negative
